Results taken from US20240091324A1, “GASTROINTESTINAL HEALTH COMPOSITION” (priority 2019, published 2024).

Key:
[1] = test system: Enterocyte; test: Observed therapeutic effective dose determined in the in vitro experiments (Table 4); format: cell-based, human
Method: (§1) The observed therapeutic effective dose was determined in the in vitro experiments described herein.
(§2) Table 4 summarises the observed therapeutic effective dose for each GaRP formulation component.

[2] = test system: Macrophage; test: as above; format: cell-based, human
Method: as §1, §2

[3] = test system: Bacteria (AIEC obtained from IBD and IBS patients); test: as above; format: cell-based, E. coli; settings: Not relevant = no anti-attachment or anti-invasive effect on the AIEC
Method: as §1, §2

[4] = test system: MUC13; test: qPCR of MUC gene expression in Caco-2:HT-29-MTX 75:25 coculture; format: cell-based, human; settings: 24 h
Method: (§3) Caco-2:HT-29-MTX 75:25 coculture: This co-culture model was used to simulate the human colonic epithelium (Hilgendorh C, 2000). The Caco-2 cells (passage 8) and the HT29-MTX cells (passage 9) were combined at a 75:25 ratio in DMEM with 10% FBS. The combined cells (6.4×10^4 cells/ml) were seeded into 25 cm^2 in a total of 5 ml per flask. The coculture was incubated at 37° C. in a 5% CO2 atmosphere with medium refreshed every 48 h. At 15 days post seeding, the coculture monolayer was washed three times in DMEM and replaced with 5 ml of pre-warmed test solution, and then incubated for 24 h.
(§4) Before RNA extraction, cells were collected by centrifugation at 5,000 g for 5 min, 4° C. the cell pellet was washed three times in ice-cold PBS followed by resuspension in 500 μl of ice-cold PBS. The total RNA of 2×10^6 cells per sample was extracted using a PureLink RNA mini kit with 1.5 μg of RNA (with A260/A280 ratio between 2.00 and 2.20) reverse-transcribed into cDNA using a High Capacity cDNA RT kit. The expression of the genes of interest was quantified using the PowerUp SYBR green Master mix. In brief, triplicate qPCR reactions was set up using 20 ng cDNA and 500 nM primers in a MicroAmp optical 384-well reaction plates using a Biomek-4000 automated liquid handler (Beckman Coulter, Brea, CA, USA). Amplification was run in a ViiA7 Real-Time PCR system (Thermo Fisher Scientific) at the following conditions: 95° C. for 20 seconds followed by 40 cycles of 95° C. for 1 second and 60° C. for 20 seconds; and a melt curve stage: 95° C., 15 s; 60° C., 60 s. The results of qPCR were analysed with the 2-ΔΔCT method as previously described using the QuantStudio Software V1.3 (Applied Biosystems). Relative gene expression values were normalized by using GAPDH and 18S as the multiple endogenous reference genes.
(§5) A 75:25 caco-2/HT-29 co-culture was established as previously described herein and the effect of a 24 h exposure to bromelain, threonine, sodium butyrate, vitamin D3 and the two different GaRP formulations on the expression of the following MUC genes was investigated using qPCR. At the end of the 24 h treatment, the supernatant in the 25 cm^2 flasks was collected and the coculture monolayer was trypsinised as previously described herein.
as §3, with “This” for “Caco-2:HT-29-MTX 75:25 coculture: This”, “epithelium.” for “epithelium (Hilgendorh C, 2000).”
(§6) The test solutions of cholecalciferol (VD3) and L-Threonine (L-Thr) (Sigma-Aldrich) in culture medium were prepared one day before the treatment. At 15 days post seeding, the coculture monolayer was washed three times at hourly interval with culture medium, which was then replaced with 5 ml of pre-warmed test solution, and then incubated for 24 h.
(§7) At the end of the 24 h treatment, the supernatant in the 25 cm^2 flasks was collected and the coculture monolayer was trypsinised as previously described. Cells were collected by centrifugation at 5,000 g for 5 min, 4° C. After washed three times with ice-cold PBS, the cells were resuspended in 500 μl of ice-cold PBS. The total RNA of 2×10^6 cells per sample was extracted using the PureLink RNA mini kit (Invitrogen). For real-time PCR analysis, 1.5 μg of RNA (with A260/A280 ratio between 2.00 and 2.20) was reverse transcribed into cDNA using the High Capacity cDNA RT kit (Applied Biosystems, Foster City, CA, USA).
(§8) The expression of the human MUC2 and MUC7 genes in the Caco-2:HT-29-MTX 75:25 coculture was quantified using the PowerUp SYBR green Master mix (Applied Biosystems). […]

[5] = test system: MUC3; test: as above; format: cell-based, human; settings: 24 h
Method: as §3, §4, §5
as §3, with “This” for “Caco-2:HT-29-MTX 75:25 coculture: This”, “epithelium.” for “epithelium (Hilgendorh C, 2000).”
as §6, §7, §8

[6] = test system: MUC15; test: as above; format: cell-based, human; settings: 24 h
Method: as §3, §4, §5
as §3, with “This” for “Caco-2:HT-29-MTX 75:25 coculture: This”, “epithelium.” for “epithelium (Hilgendorh C, 2000).”
as §6, §7, §8

[7] = test system: MUC1; test: as above; format: cell-based, human; settings: 24 h
Method: as §3, §4, §5
as §3, with “This” for “Caco-2:HT-29-MTX 75:25 coculture: This”, “epithelium.” for “epithelium (Hilgendorh C, 2000).”
as §6, §7, §8

[8] = test system: MUC19; test: as above; format: cell-based, human; settings: 24 h
Method: as §3, §4, §5
as §3, with “This” for “Caco-2:HT-29-MTX 75:25 coculture: This”, “epithelium.” for “epithelium (Hilgendorh C, 2000).”
as §6, §7, §8

[9] = test system: MUC8; test: as above; format: cell-based, human; settings: 24 h
Method: as §3, §4, §5
as §3, with “This” for “Caco-2:HT-29-MTX 75:25 coculture: This”, “epithelium.” for “epithelium (Hilgendorh C, 2000).”
as §6, §7, §8

[10] = test system: MUC20; test: as above; format: cell-based, human; settings: 24 h
Method: as §3, §4, §5
as §3, with “This” for “Caco-2:HT-29-MTX 75:25 coculture: This”, “epithelium.” for “epithelium (Hilgendorh C, 2000).”
as §6, §7, §8

[11] = test system: MUC7; test: as above; format: cell-based, human; settings: 24 h
Method: as §3, §4, §5
as §3, with “This” for “Caco-2:HT-29-MTX 75:25 coculture: This”, “epithelium.” for “epithelium (Hilgendorh C, 2000).”
as §6, §7, §8

[12] = test system: MUC5B; test: as above; format: cell-based, human; settings: 24 h
Method: as §3, §4, §5
as §3, with “This” for “Caco-2:HT-29-MTX 75:25 coculture: This”, “epithelium.” for “epithelium (Hilgendorh C, 2000).”
as §6, §7, §8

[13] = test system: MUC4; test: as above; format: cell-based, human; settings: 24 h
Method: as §3, §4, §5
as §3, with “This” for “Caco-2:HT-29-MTX 75:25 coculture: This”, “epithelium.” for “epithelium (Hilgendorh C, 2000).”
as §6, §7, §8

[14] = test system: MUC5AC; test: as above; format: cell-based, human; settings: 24 h
Method: as §3, §4, §5
as §3, with “This” for “Caco-2:HT-29-MTX 75:25 coculture: This”, “epithelium.” for “epithelium (Hilgendorh C, 2000).”
as §6, §7, §8

[15] = test system: MUC12; test: as above; format: cell-based, human; settings: 24 h
Method: as §3, §4, §5
as §3, with “This” for “Caco-2:HT-29-MTX 75:25 coculture: This”, “epithelium.” for “epithelium (Hilgendorh C, 2000).”
as §6, §7, §8

[16] = test system: MUC17; test: as above; format: cell-based, human; settings: 24 h
Method: as §3, §4, §5
as §3, with “This” for “Caco-2:HT-29-MTX 75:25 coculture: This”, “epithelium.” for “epithelium (Hilgendorh C, 2000).”
as §6, §7, §8

[17] = test system: MUC16; test: as above; format: cell-based, human; settings: 24 h
Method: as §3, §4, §5
as §3, with “This” for “Caco-2:HT-29-MTX 75:25 coculture: This”, “epithelium.” for “epithelium (Hilgendorh C, 2000).”
as §6, §7, §8

[18] = test system: MUC2; test: as above; format: cell-based, human; settings: 24 h
Method: as §3, §4, §5
as §3, with “This” for “Caco-2:HT-29-MTX 75:25 coculture: This”, “epithelium.” for “epithelium (Hilgendorh C, 2000).”
as §6, §7, §8

[19] = test system: MUC6; test: as above; format: cell-based, human; settings: 24 h
Method: as §3, §4, §5
as §3, with “This” for “Caco-2:HT-29-MTX 75:25 coculture: This”, “epithelium.” for “epithelium (Hilgendorh C, 2000).”
as §6, §7, §8

SMILES: C=C1CC[C@H](O)C/C1=C/C=C1\CCC[C@]2(C)[C@@H]([C@H](C)CCCC(C)C)CC[C@@H]12 [Vitamin D3, Cholecalciferol]
- observed therapeutic effective dose, Target cell Enterocyte (pg/cell) [1]: 0.018 pg/cell
- observed therapeutic effective dose, Target cell Macrophage (pg/cell) [2]: 0.36 pg/cell
- observed therapeutic effective dose, Target cell Bacteria (fg/cell) [3]: Not relevant
- Effect on MUC gene expression, MUC13: Decreased by ([4]; 0.048 μg/ml vitamin D3): by 37%
- Effect on MUC gene expression, MUC13: Decreased by ([4]; 0.48 μg/ml vitamin D3): by 56%
- Effect on MUC gene expression, MUC3: Decreased by ([5]; 0.048 μg/ml vitamin D3): by 43%
- Effect on MUC gene expression, MUC3 ([5]; 0.48 μg/ml vitamin D3): No effect
- Effect on MUC gene expression, MUC15 ([6]; 0.048 μg/ml vitamin D3): No effect
- Effect on MUC gene expression, MUC15 ([6]; 0.48 μg/ml vitamin D3): No effect
- Effect on MUC gene expression, MUC1: Decreased by ([7]; 0.048 μg/ml vitamin D3): by 37%
- Effect on MUC gene expression, MUC1: Decreased by ([7]; 0.48 μg/ml vitamin D3): by 58%
- Effect on MUC gene expression, MUC19 ([8]; 0.048 μg/ml vitamin D3): No effect
- Effect on MUC gene expression, MUC19 ([8]; 0.48 μg/ml vitamin D3): No effect
- Effect on MUC gene expression, MUC8: Decreased by ([9]; 0.048 μg/ml vitamin D3): by 30%
- Effect on MUC gene expression, MUC8: Decreased by ([9]; 0.48 μg/ml vitamin D3): by 50%
- Effect on MUC gene expression, MUC20: Decreased by ([10]; 0.048 μg/ml vitamin D3): by 18%
- Effect on MUC gene expression, MUC20: Decreased by ([10]; 0.48 μg/ml vitamin D3): by 27%
- Effect on MUC gene expression, MUC7 ([11]; 0.048 μg/ml vitamin D3): No effect
- Effect on MUC gene expression, MUC7 ([11]; 0.48 μg/ml vitamin D3): No effect
- effect on the expression of MUC7, individually ([11]; titration, FIGS. 9A & 9B): did not exert a major effect
- Effect on MUC gene expression, MUC5B: Decreased by ([12]; 0.048 μg/ml vitamin D3): by 56%
- Effect on MUC gene expression, MUC5B: Decreased by ([12]; 0.48 μg/ml vitamin D3): by 63%
- Effect on MUC gene expression, MUC4 ([13]; 0.048 μg/ml vitamin D3): No effect
- Effect on MUC gene expression, MUC4 ([13]; 0.48 μg/ml vitamin D3): No effect
- Effect on MUC gene expression, MUC5AC: Decreased by ([14]; 0.048 μg/ml vitamin D3): by 42%
- Effect on MUC gene expression, MUC5AC: Decreased by ([14]; 0.48 μg/ml vitamin D3): by 42%
- Effect on MUC gene expression, MUC12 ([15]; 0.048 μg/ml vitamin D3): No effect
- Effect on MUC gene expression, MUC12 ([15]; 0.48 μg/ml vitamin D3): No effect
- Effect on MUC gene expression, MUC17: Decreased by ([16]; 0.048 μg/ml vitamin D3): by 31%
- Effect on MUC gene expression, MUC17: Decreased by ([16]; 0.48 μg/ml vitamin D3): by 40%
- Effect on MUC gene expression, MUC16 ([17]; 0.048 μg/ml vitamin D3): No effect
- Effect on MUC gene expression, MUC16 ([17]; 0.48 μg/ml vitamin D3): No effect
- Effect on MUC gene expression, MUC2 ([18]; 0.048 μg/ml vitamin D3): No effect
- Effect on MUC gene expression, MUC2 ([18]; 0.48 μg/ml vitamin D3): No effect
- effect on the expression of MUC2, individually ([18]; titration, FIGS. 9A & 9B): did not exert a major effect
- Effect on MUC gene expression, MUC6 ([19]; 0.048 μg/ml vitamin D3): No effect
- Effect on MUC gene expression, MUC6 ([19]; 0.48 μg/ml vitamin D3): No effect
